# Experimental data published in patent US20220409581A1, “METHODS AND COMPOSITIONS FOR TREATMENT OF SOLID TUMORS USING F16 ISOINDOLE SMALL MOLECULES” (Nova Southeastern University, priority 2019, published 2022).
# Entries after “also recorded” stand apart in the source; their conditions may differ.
# Legend:
# U87MG cells [1] = assay: Trypan blue dye exclusion method (TBDE); format: cell-based, human; settings: F16 100 μM, TMZ 1000 μM
# Description: (§1) The cell viability was assessed using a 3-(4,5-dimethylthiazol-2-yl)-2, 5-diphenyltetrazolium bromide (MTT) assay (Sigma-Aldrich, St. Louis, Mo., USA), and trypan blue dye exclusion method (TBDE). For the MTT assay, U87MG cells were cultured in a 96 well-plate at a density of 5×10^3 per well and incubated at 37° C. under 5% CO2 for 24 h. Then, the cells were treated with different concentrations of F16 (0.1-100 μM) and TMZ (0.1-500 μM) for 24 h. At the end of treatment, the old medium was aspirated, and 10 μL of MTT (0.5 mg/mL in PBS) was added to each well and the cells were incubated at 37° C. for an additional 3 h. Finally, the MTT solution was removed, and 100 μL of dimethyl sulfoxide (DMSO) was added to each well. The plate was gently rotated on an orbital shaker for 10 min to completely dissolve the precipitation and the absorbance was measured at 570 nm using Microplate Reader (VersaMax, Molecular Devices, Sunnyvale, Calif., USA). For the TBDE method, U87MG cells were cultured in a 24 well-plate at a density of 5×10^4 per well and incubated at 37° C. under 5% CO2 for 48 h. Then, the cells were treated with different concentrations of F16 (0.1-100 μM) and TMZ (10-1000 μM). After 24, 48, and 72 h of treatments, an aliquot (50 μL) of the cell suspension from each treatment was mixed with 1:1 (v/v) volume of 0.4% trypan blue. The viable cells were counted with a Bio-Rad TC20™ Automated Cell Counter (Hercules, Calif., USA)
# [2] = tested on: U87MG derived xenograft tumor; format: in vivo
# Description: Lauderdale, Fla. Animals were subcutaneously injected into the right flank of each mouse, with 4×10^6 of U87MG glioblastoma cancer cells suspended in 100 μL of PBS mixed with Matrigel (BD Biosciences). […] The experimental mice were treated once in every 2 days for the period of 16 days. At the end of the treatment, the tumors were isolated and then the tumor length (L) and width (W) were measured to calculate the tumor volume (TV) according to the formula: TV=1/2×(L×W^2). To determine the tumor inhibitory effects of F16 and TMZ treatments, the inhibition ratio (IR) was calculated using the formula: […]
# At the end of the treatment, all the animals in the control and experimental groups were sacrificed and tumors were excised and weighed.
# U87MG cells [3] = assay: MTT cytotoxicity assay; format: cell-based; settings: Homo sapiens, U-87 MG, 24 h, read-out: IC50 (50% reduction of U87MG cell viability)
# Description: as §1, with “After 24, 48, and 72 h of treatments, an aliquot (50 μL) of the cell suspension from each treatment was mixed with 1:1 (v/v) volume of 0.4% trypan blue.” left out
# [4] = tested on: U87MG-luc intracranial xenograft; assay: Intracranial glioblastoma xenograft model with bioluminescence imaging
# Description: For tolerability study, 8-10 weeks old male BALB/c mice weighing approximately 25 g were used (Charles Rivers, US). For intracranial study, 8-10 weeks old female athymic nude (Nu/Nu) mice weighing approximately 25 g were used (Taconic Biosciences, US). All animals were housed in pathogen-free ventilated cages under environmentally controlled conditions of humidity and temperature (22° C.; 12:12 h light-dark cycle) with free access to pathogen-free food and water.
# F16 (100 mg/kg) was dissolved in a 10% DMSO+90% KolliphorEL (KP). TMZ (50 mg/kg) was dissolved in 10% DMSO+90% phosphate-buffered saline (PBS). All drugs were prepared fresh before the scheduled injection [21]. The total volume of injection was 100 μL/mouse for all experiments which was administered intraperitoneally.
# For intracranial study, the glioblastoma xenograft model was developed using athymic nude (Nu/Nu) mice. Briefly, mice were placed under general anesthesia (intraperitoneal injection of 100 mg/kg Ketamine and 10 mg/kg Xylazine) and were positioned in the stereotaxic device. A median incision of ˜1 cm was made, and a burr hole was drilled into the right striatum of the skull (1.0 mm forward and 2.0 mm lateral to the bregma). Subsequently, U87MG cells expressing the luc reporter gene (2×10^5 cells in 3 μL PBS) was injected using a 10-μl Hamilton syringe at the rate of 1 μL/min at a depth of 3 mm. Once injection was completed, the needle was kept in place for 2 minutes and then slowly removed, and the hole was sealed with a sterile bone wax. The incision was closed, and triple antibiotic ointment was applied. One week after tumor cell transplantation, mice were divided randomly into five groups (n=5 in each group): 1) control treated with DMSO in PBS, 2) control treated with DMSO in KP, 3) treated with F16 (100 mg/kg), 4) treated with temozolomide (50 mg/kg) and 5) treated with F16 (100 mg/kg) and 3 h later treated with temozolomide (50 mg/kg). One more group with no tumor implant was added to the study as a negative control (n=5). The experimental mice were treated twice per week for 3 weeks.
# Bioluminescence imaging (BLI) was used to assess and confirm tumor growth in intracranial xenograft. BLI was carried out in vivo using the Bruker Xtreme which is a sensitive optical X-ray machine designed for preclinical in vivo study based on BLI concept. Briefly, mice were injected intraperitoneally with D-luciferin (Sigma) dissolved in saline at a dose of 150 mg/kg body weight. Immediately after the injection, mice were anesthetized by isoflurane and series of bioluminescent images was acquired with 3-minutes acquisition intervals for approximately 20 minutes, by which time, the luciferin had been washed out. The image with the peak BLI intensity was used for quantification in units of photon counts.
# [5] = tested on: Glioblastoma multiforme (GBM); settings: human, in vivo; cited from earlier work
# U87MG cells [6] = assay: Trans-well migration assay; format: cell-based, human; settings: 24 h; F16 20 μM, TMZ 400 μM
# Description: The migration ability of U87MG cell was determined using both scratch and trans-well assays. For the scratch assay, monolayer of U87MG cells was grown on 6-well plates close to 80% confluency. Using a sterile 200 μL tip, a single straight line scratch was made in each well. The wells were washed with phosphate-buffered saline (PBS) and refilled with growth medium containing various concentrations of F16 (0.1-20 μM) and TMZ (10-400 μM). The images were captured using Leica microscope at 12 h and 24 h post-scratch. For the trans-well migration assay, 6.5 mm trans-well plates polycarbonate membrane inserts (Corning, N.Y., USA) with 8 μm pore size were used. After an initial equilibrium period, 5×10^4 cells suspended in 100 μL basal medium without FBS were added to the upper compartment of the trans-well inserts and exposed to different concentrations of F16 (0.1-20 μM) and TMZ (10-400 μM). The lower chamber was filled with 600 μL of EMEM medium supplemented with 10% fetal bovine serum. Then, trans-well plates were incubated at 37° C. under 5% CO2 for 24 h to allow for the migration of U87MG cells across the porous membrane. […] Five different fields per well were captured with a Leica microscope (DMI 3000 B; IL, USA) using 10× magnification, and the number of cells that penetrated the membrane was counted using ImageJ software (NIH Image, Bethesda, Md., USA).
# [7] = Tolerability / toxicity study; settings: i.p. twice a week for 4 weeks
# Description: For tolerability study, 8-10 weeks old male BALB/c mice weighing approximately 25 g were used (Charles Rivers, US). […] All animals were housed in pathogen-free ventilated cages under environmentally controlled conditions of humidity and temperature (22° C.; 12:12 h light-dark cycle) with free access to pathogen-free food and water. All animal care and experiments were performed in accordance with the guidelines and approval of the Institutional Animal Care and Use Committee (IACUC) of Nova Southeastern University (NSU), Ft. Lauderdale, Fla.
# TMZ (50 mg/kg) was dissolved in 10% DMSO+90% phosphate-buffered saline (PBS). All drugs were prepared fresh before the scheduled injection [21]. The total volume of injection was 100 μL/mouse for all experiments which was administered intraperitoneally.
# For tolerability studies, BALB/c mice were randomly assigned to 4 different treatment groups (FIG. 15: Table 1). At the end of the treatment period, blood samples from all the mice were collected and sent to the Department of Comparative Pathology at the University of Miami (City of Miami, Fla.) to analyze the hematological and biochemical parameters.
# Mice injected with KP were used as controls. All drugs were administered as i.p. injections twice a week for 4 weeks. Independent toxicity evaluations, serum biochemistry, post-mortem gross examination, and histopathological examination of major organs were performed at Comparative Pathology Department at the University of Miami, Fla.
# [8] = rats and monkeys; cited from earlier work
# recurrent GBM = settings: cited from earlier work
molecule,measurement,setting,value
"Cn1nnc2c(C(N)=O)ncn2c1=O [TMZ, Temozolomide, reference compound]",maximum percentage of U87MG cells death,U87MG cells [1]; 24 h,68%
same,maximum percentage of U87MG cells death,U87MG cells [1]; 48 h,95%
same,maximum percentage of U87MG cells death,U87MG cells [1]; 72 h,82%
same,suppression of tumor growth,"[2]; i.p., once every 2 days for 16 days, F16 100 mg/kg, TMZ 50 mg/kg, combination of both",53%
same,signs of toxicity / tolerability,"[2]; mouse, in vivo",symptoms of toxicity
same,IC50,U87MG cells [3],430 µM
same,body weight,[4]; compared to mice treated with vehicles (PBS/KP),No significant change
same,tumor inhibition,[4]; intracranial xenograft model,99%
same,condition of excised brains,"[4]; mouse, in vivo",fragile and damaged
same,mice that lived until day 50 post implantation,"[4]; mouse, in vivo",60%
same,median survival,"[4]; vehicles-PBS 34 days, vehicles-KP 36 days",47 days
same,TMZ treated patients who develop significant toxicity,[5],15-20%
same,U87MG cells trapped in the upper compartment as compared to untreated cells,U87MG cells [6],About 80%
same,ALT level (liver function),[7],Significant elevation; also recorded: significantly elevating
same,BUN levels (kidney function),[7],No significant changes
same,RBC,[7],slight increase
same,WBC counts,[7],significant increase
same,hematocrit,[7],slight increase
same,levels of TMZ in the brain as % of the plasma concentration,[8],30-40%
Bevacizumab [BVZ],overall survival (OS),recurrent GBM; patients with (recurrent) GBM,no improvement; also recorded: failed to improve
same,progression free survival (PFS),recurrent GBM; recurrent GBM,did improve
